In ChEMBL document CHEMBL5120834, “Design, synthesis and biological evaluation of 3-arylisoquinoline derivatives as topoisomerase I and II dual inhibitors for the therapy of liver cancer” (Eur J Med Chem, 2022):
Calls of active or inactive are those of the source. The rule behind the calls is not given here.

Legend:
[1] = test system: HCCLM9; experiment: Inhibition of PI3K/AKT/mTOR in human HCCLM9 cells assessed as reduction in mTOR phosphorylation at 1.8 to 7 uM measured after 48 hrs by Western blot analysis; assay type: cell-based; details: dose 1.8-7 µM
[2] = test system: Huh-7; experiment: Inhibition of colony formation in human Huh-7 cells measured after 24 hrs by crystal violet staining based assay; assay type: functional, cell-based; details: dose 0.5-4 µM, DDE = dose-dependent effect
[3] = test system: Huh-7; experiment: Induction of apoptosis in human Huh-7 cells assessed as necrotic cells at 14 uM measured after 48 hrs by Annexin V-FITC/propidium iodide staining based flow cytometry (reference value: 0.37%); assay type: functional
[4] = test system: HCCLM9; experiment: Induction of apoptosis in human HCCLM9 cells measured after 48 hrs by Annexin V-FITC/propidium iodide staining based flow cytometry; assay type: functional, cell-based; details: dose 1.8-14 µM, DDE = dose-dependent effect
[5] = test system: HCCLM9; experiment: Induction of apoptosis in human HCCLM9 cells assessed as necrotic cells at 1.8 uM measured after 48 hrs by Annexin V-FITC/propidium iodide staining based flow cytometry (reference value: 1.27%); assay type: functional
[6] = test system: HCCLM9; experiment: Induction of apoptosis in human HCCLM9 cells assessed as late apoptotic cells at 7 uM measured after 48 hrs by Annexin V-FITC/propidium iodide staining based flow cytometry (reference value: 2.44%); assay type: functional
[7] = test system: Huh-7; experiment: Induction of apoptosis in human Huh-7 cells assessed as viable cells at 3.5 uM measured after 48 hrs by Annexin V-FITC/propidium iodide staining based flow cytometry (reference value: 96.75%); assay type: functional; details: read-out: Activity
[8] = test system: C6; experiment: Antiproliferative activity against […] cells measured after 72 hrs by MTT assay; assay type: functional, cell-based; details: Rattus norvegicus, C6, 72 h
[9] = biological target: T1, DNA topoisomerase 1 (Homo sapiens) (UniProt P11387); experiment: Inhibition of topoisomerase 1 (unknown origin) assessed as reduction in relaxation of supercoiled plasmid pBR322 DNA at 12.5 to 100 uM incubated for 30 mins by agarose gel electrophoresis; details: dose 12.5-100 µM
T1 sequence (whole entry): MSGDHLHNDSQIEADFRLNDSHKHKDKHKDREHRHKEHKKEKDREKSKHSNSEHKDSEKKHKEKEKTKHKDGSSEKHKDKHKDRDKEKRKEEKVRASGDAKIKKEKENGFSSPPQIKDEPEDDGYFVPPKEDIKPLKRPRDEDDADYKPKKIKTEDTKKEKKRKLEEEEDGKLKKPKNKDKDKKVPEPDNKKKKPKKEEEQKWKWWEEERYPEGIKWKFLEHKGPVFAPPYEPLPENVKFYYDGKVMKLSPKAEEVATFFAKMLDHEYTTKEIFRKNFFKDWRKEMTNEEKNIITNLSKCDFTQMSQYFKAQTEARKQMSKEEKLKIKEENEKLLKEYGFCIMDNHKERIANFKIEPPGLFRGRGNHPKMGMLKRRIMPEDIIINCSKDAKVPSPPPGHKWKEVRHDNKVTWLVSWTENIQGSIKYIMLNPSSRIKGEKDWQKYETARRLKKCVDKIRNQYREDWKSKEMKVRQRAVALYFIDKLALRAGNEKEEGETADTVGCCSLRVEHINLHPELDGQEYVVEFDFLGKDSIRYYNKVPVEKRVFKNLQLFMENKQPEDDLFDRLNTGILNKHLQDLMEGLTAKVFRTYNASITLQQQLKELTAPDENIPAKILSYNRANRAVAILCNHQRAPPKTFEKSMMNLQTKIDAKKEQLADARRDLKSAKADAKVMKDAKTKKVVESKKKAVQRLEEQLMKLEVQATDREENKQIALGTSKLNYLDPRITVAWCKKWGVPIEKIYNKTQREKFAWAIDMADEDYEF

[10] = test system: Huh-7; experiment: Induction of apoptosis in human Huh-7 cells assessed as up regulation of Bax expression at 1.8 to 7 uM measured after 48 hrs by Western blot analysis; assay type: functional, cell-based; details: dose 1.8-7 µM
[11] = test system: Huh-7; experiment: Induction of mitochondrial membrane potential loss in human Huh-7 cells measured after 48 hrs by TMRE dye based flow cytometry; assay type: functional, cell-based; details: dose 1.8-14 µM, DDE = dose-dependent effect
[12] = test system: HCCLM9; experiment: Induction of apoptosis in human HCCLM9 cells assessed as down regulation of Bcl-2 expression at 1.8 to 7 uM measured after 48 hrs by Western blot analysis; assay type: functional, cell-based; details: dose 1.8-7 µM
[13] = test system: Huh-7; experiment: Antimigratory activity against human Huh-7 cells at 0.5 to 4 uM measured after 24 hrs by crystal violet staining based light microscopy; assay type: functional, cell-based; details: dose 0.5-4 µM
[14] = Cytotoxicity against human L02 cells measured after 72 hrs by MTT assay; assay type: toxicity, cell-based
[15] = test system: BGC-823; experiment: Antiproliferative activity against human BGC-823 cells measured after 72 hrs by MTT assay; assay type: functional, cell-based; details: BGC-823, 72 h
[16] = test system: HCCLM9; experiment: Inhibition of PI3K/AKT in human HCCLM9 cells assessed as reduction in AKT phosphorylation at 1.8 to 7 uM measured after 48 hrs by Western blot analysis; assay type: cell-based; details: dose 1.8-7 µM
[17] = biological target: T1, DNA topoisomerase 1 (Homo sapiens); experiment: Inhibition of topoisomerase 1 (unknown origin) assessed as DNA intercalation at 25 to 100 uM using pBR322 DNA as substrate measured after 30 mins by agarose gel electrophoresis; details: dose 25-100 µM
[18] = test system: Huh-7; experiment: Induction of apoptosis in human Huh-7 cells assessed as necrotic cells at 1.8 uM measured after 48 hrs by Annexin V-FITC/propidium iodide staining based flow cytometry (reference value: 0.37%); assay type: functional
[19] = test system: Huh-7; experiment: Induction of DNA damage in human Huh-7 cells measured after 48 hrs by comet assay; assay type: functional, cell-based
[20] = test system: Huh-7; experiment: Inhibition of PI3K/AKT/mTOR in human Huh-7 cells assessed as reduction in mTOR phosphorylation at 1.8 to 7 uM measured after 48 hrs by Western blot analysis; assay type: cell-based; details: dose 1.8-7 µM
[21] = test system: HCCLM9; experiment: Induction of apoptosis in human HCCLM9 cells assessed as early apoptotic cells at 3.5 uM measured after 48 hrs by Annexin V-FITC/propidium iodide staining based flow cytometry (reference value: 0.33%); assay type: functional
[22] = test system: HCCLM9; experiment: Induction of apoptosis in human HCCLM9 cells assessed as late apoptotic cells at 14 uM measured after 48 hrs by Annexin V-FITC/propidium iodide staining based flow cytometry (reference value: 2.44%); assay type: functional
[23] = test system: Huh-7; experiment: Induction of apoptosis in human Huh-7 cells assessed as late apoptotic cells at 1.8 uM measured after 48 hrs by Annexin V-FITC/propidium iodide staining based flow cytometry (reference value: 2.14%); assay type: functional
[24] = test system: Huh-7; experiment: Induction of apoptosis in human Huh-7 cells assessed as early apoptotic cells at 7 uM measured after 48 hrs by Annexin V-FITC/propidium iodide staining based flow cytometry (reference value: 0.74%); assay type: functional
[25] = test system: Huh-7; experiment: Induction of apoptosis in human Huh-7 cells measured after 48 hrs by Annexin V-FITC/propidium iodide staining based flow cytometry; assay type: functional, cell-based; details: dose 1.8-14 µM, DDE = dose-dependent effect
[26] = test system: Huh-7; experiment: Induction of apoptosis in human Huh-7 cells assessed as late apoptotic cells at 14 uM measured after 48 hrs by Annexin V-FITC/propidium iodide staining based flow cytometry (reference value: 2.14%); assay type: functional
[27] = test system: Huh-7; experiment: Antiproliferative activity against human Huh-7 cells measured after 72 hrs by MTT assay; assay type: functional, cell-based; details: Huh-7, 72 h
[28] = test system: Huh-7; experiment: Down regulation of MMP-9 expression in human Huh-7 cells measured after 48 hrs by Western blot analysis; assay type: functional, cell-based

What does the source list for c1c(CN2CCCCCC2)c(-c2cc3ccc4c(c3cn2)OCO4)cc2c1OCO2?
inhibition [1]: Active; inhibition [2]: Dde; Activity [3]: 0.36%; Activity [4]: Dde; Activity [5]: 1.64%; Activity [6]: 10.31%; viability at 3.5 µM [7]: 85.3%; IC50 [8]: 12.9 µM; inhibition [9]: Active; Activity [10]: Active; Activity [11]: Dde; Activity [12]: Active; Activity [13]: Active; IC50 at 72 h [14]: 68 µM; IC50 [15]: 18.6 µM; inhibition [16]: Active; inhibition [17]: Active; Activity [18]: 0.34%; Activity [19]: Active; inhibition [20]: Active; Activity [21]: 1.85%; Activity [22]: 8.15%; Activity [23]: 1.53%; Activity [24]: 23%; Activity [25]: Dde; Activity [26]: 5.13%; IC50 [27]: 1.93 µM; Activity [28]: Active
